Laboratory results reported in publication PMC2594009 (Structure (London, England : 1993), 2008).
Values joined by “and” are separate entries in the source; they are usually repeats but may differ in a detail not shown here. Equal entries are not always repeated. “Also recorded” adds a separate entry of the source.

Columns and labels:
L26F AM2 = assay type: cell-based, influenza A virus; settings: pH 5.5
S31N AM2 = assay type: cell-based, influenza A virus; settings: pH 5.5

NC12CC3CC(CC(C3)C1)C2 [amantadine]
inhibition of the inward current (L26F AM2): 47% and 46.8 ± 0.7%
reversibility of inhibition after removal of the drug (L26F AM2): reversibly inhibited; also recorded: readily reversible
inhibition of the inward current (S31N AM2): 30% and 30.7 ± 1.8%
reversibility of inhibition after removal of the drug (S31N AM2): immediately reversed; also recorded: highly reversible
